{"source": "patent US20240173311A1", "about": "“METHODS AND COMPOSITIONS FOR MODULATING FGF ACTIVITY” (Recovery Therapeutics, Inc., priority 2021, published 2024)", "key": {"human coronavirus 229E": {"system": "human coronavirus 229E", "experiment": "Anti-coronavirus activity, cell survival (XTT) of infected HAP1 cells", "type": "cell-based", "settings": "in combination with FGF-2 (1 ng/ml), compound 0.002-1 μM, 4 days incubation, FIG. 7", "description": "FIG. 7 is a graph showing the cell survival of HAP1 cells infected with human coronavirus 229E following a 4-day incubation period in the presence of Compound 1o. Compound 1o (0.002 μM, 0.008 μM, 0.04 μM, 0.2 μM, or 1 uM) and FGF-2 (1 ng/mL) were added on Day -1, Day 0, Day 1, and Day 2 of infection by human coronavirus 229E.\n(§1) Compound 10 was evaluated for its ability to reduce human coronavirus 229E induced cellular toxicity in HAP1 cells with and without the addition of a low concentration of FGF-2. HAP1 cells were seeded at a density of 1×10^4 cells/well in a volume of 100 μL in DMEM supplemented with 10% FBS. Following a 24-hour incubation at 37° C./5% CO2 the cells were pre-incubated with and without (media only) exogenous FGF-2 (1 ng/ml) and Compound 10 (0.002 μM, 0.008 μM, 0.04 μM, 0.2 μM, or 1 μM; plated in triplicate) for 24 hours prior (D-1) to the addition of human coronavirus 229E at a pre-determined titer. On the day of viral infection (D0), and one and two days thereafter (D1 and D2), freshly prepared FGF-2 and Compound 10 were added. The cultures were incubated for 4 days at 37° C./5% CO2, after which the cells were stained for cell survival with the tetrazolium dye XTT."}, "[1]": {"system": "rodent model of stroke recovery (MCAO)", "experiment": "Stroke recovery in vivo after middle cerebral artery occlusion (MCAO)", "settings": "rat MCAO, 10 mg/kg i.v. on Day 1, 2, 3 after MCAO", "description": "Compound 10 was tested for its effectiveness in a rodent model of stroke recovery. Twenty male Sprague Dawley Rats (Charles River Laboratories) each weighing 300-400 g were used in this experiment. First, anesthesia was induced in an induction chamber with 2-3% isoflurane in N2O:O2 (2:1) and maintained with 1-1.5% isoflurane via face mask. Adequate depth of anesthesia was assessed by lack of withdrawal to hindlimb pinch and loss of eyeblink reflex. Once anesthetized, animals received cefazolin sodium (40 mg/kg, i.p.) and buprenorphine SR (0.9-1 mg/kg, s.c.). Cefazolin was used as a prophylactic antibiotic. A veterinary ophthalmic ointment (Sodium Chloride hypertonicity ophthalmic ointment (Muro 128 Sterile Ophthalmic 5% Ointment)) was applied to the eyes. […]\nBehavioral evaluations of sensorimotor function were done by investigators blinded to treatment assignment. […] For the forelimb-placing test, the examiner held the rat close to a tabletop and scored the rat's ability to place the forelimb on the tabletop in response to whisker, visual, tactile, or proprioceptive stimulation. Similarly, for the hindlimb placing test, the examiner assessed the rat's ability to place the hindlimb on the tabletop in response to tactile and proprioceptive stimulation. […]"}, "FGFR1": {"target": "FGFR1 (Homo sapiens, UniProt P11362)", "sequence (P11362 22-822, species assumed)": "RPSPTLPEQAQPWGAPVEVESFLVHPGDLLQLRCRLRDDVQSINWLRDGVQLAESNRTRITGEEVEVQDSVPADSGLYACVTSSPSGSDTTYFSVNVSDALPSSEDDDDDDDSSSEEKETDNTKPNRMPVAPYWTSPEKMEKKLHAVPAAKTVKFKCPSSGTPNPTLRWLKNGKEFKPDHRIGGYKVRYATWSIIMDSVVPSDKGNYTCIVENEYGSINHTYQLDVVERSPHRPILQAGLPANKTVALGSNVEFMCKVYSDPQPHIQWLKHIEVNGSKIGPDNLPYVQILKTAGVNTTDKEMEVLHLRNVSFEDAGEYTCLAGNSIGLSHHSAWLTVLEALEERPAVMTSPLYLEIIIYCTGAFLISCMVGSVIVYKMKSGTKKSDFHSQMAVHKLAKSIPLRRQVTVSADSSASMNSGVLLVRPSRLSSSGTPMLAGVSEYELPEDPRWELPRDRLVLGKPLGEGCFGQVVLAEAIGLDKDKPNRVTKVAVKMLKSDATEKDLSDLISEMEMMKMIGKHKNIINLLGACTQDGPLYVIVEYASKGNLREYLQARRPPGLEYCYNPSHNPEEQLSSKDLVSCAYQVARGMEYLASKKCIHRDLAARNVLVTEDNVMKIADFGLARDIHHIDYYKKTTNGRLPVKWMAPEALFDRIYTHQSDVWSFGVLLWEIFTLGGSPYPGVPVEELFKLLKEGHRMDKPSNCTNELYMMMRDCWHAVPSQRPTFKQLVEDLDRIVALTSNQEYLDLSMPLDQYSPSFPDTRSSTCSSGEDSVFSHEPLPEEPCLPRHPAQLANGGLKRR", "sequence (P09038 143-288 partner, species assumed)": "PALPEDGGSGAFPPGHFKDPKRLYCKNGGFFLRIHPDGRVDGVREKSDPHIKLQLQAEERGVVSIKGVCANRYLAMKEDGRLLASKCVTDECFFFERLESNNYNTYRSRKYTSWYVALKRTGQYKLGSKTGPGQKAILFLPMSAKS", "experiment": "Phosphorylation of FGFR1 in a cell-based system", "settings": "cells expressing FGFR1, increasing concentrations, submaximal concentration of FGF-2, FIG. 2", "description": "FIG. 2 is a graph showing the phosphorylation of FGFR1 in the presence of increasing concentrations of Compound 1o in a cell-based system.\nCells expressing FGFR1 were exposed to increasing concentrations of Compound 10 in the presence of a submaximal concentration of FGF-2. Cells were then lysed, and the relative phosphorylation of FGFR1 was assessed using antibodies to non-phosphorylated and phosphorylated FGFR1. The results are shown in FIG. 2, which is a graph showing the phosphorylation of FGFR1 in the presence of increasing concentrations of Compound 10."}, "HAP1 cells": {"system": "HAP1 cells", "experiment": "Cell survival (XTT) of HAP1 cells in the absence of virus", "type": "cell-based", "settings": "compound 0.002-1 μM, FGF-2 1 ng/ml", "description": "as §1"}, "[2]": {"target": "T1, purified FGF-2/FGFR1 complex (Homo sapiens, UniProt P09038+P11362)", "T1 construct": "made in house; host or cells: Escherichia coli BL21 (DE3) Star", "T1 sequence (P11362 142-365 limits assumed)": "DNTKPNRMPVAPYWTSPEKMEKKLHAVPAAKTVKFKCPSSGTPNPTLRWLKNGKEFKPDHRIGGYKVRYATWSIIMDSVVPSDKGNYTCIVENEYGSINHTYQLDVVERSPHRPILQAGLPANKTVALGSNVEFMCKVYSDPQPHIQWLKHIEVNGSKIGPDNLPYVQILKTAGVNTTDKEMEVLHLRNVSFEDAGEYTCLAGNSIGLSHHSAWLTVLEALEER", "T1 sequence (P09038 156-288 limits assumed)": "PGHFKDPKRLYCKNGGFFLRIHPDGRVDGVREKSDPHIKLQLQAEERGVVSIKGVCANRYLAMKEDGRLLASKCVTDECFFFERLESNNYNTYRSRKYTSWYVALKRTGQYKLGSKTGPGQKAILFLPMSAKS", "experiment": "Thermal stability assay (TSA) melting curve of the complex (FIG. 1)", "type": "binding", "settings": "25 μM compound, versus complex alone", "description": "FIG. 1 is a graph showing the thermal stability assay (TSA) data of purified FGF-2.FGFR1 complex with and without the addition of Compound 1o (dotted line: without Compound 1o; solid line: 25 μM Compound 1o).\nTSA was utilized to biophysically characterize the recombinant human FGFR1/FGF2 complex in the presence or absence of selected compounds of formula (I), Compounds 1, 2a-2f, 20, 5, 60, and 8-13. Compound 1 was prepared according to the procedures described in Example 1, and the other compounds were obtained from commercial sources. The assay functions by protein denaturation over a temperature gradient. […] Changes in the melting temperature of the protein complex in the presence of each compound were monitored and compounds were screened/ranked using this method.\nComplex formation was verified by loading the complexed material on a size exclusion column (superdex 10 300GL S200) and observing the monodisperse peak corresponding to the FGF2/FGFR1 complex (˜ 40 kDa). […] The samples were processed using a Bio-Rad CFX C96 Touch quantitative polymerase chain reaction and run using the FRET assay settings with a heating ramp of 0.3° C./s cycling from 4 to 100° C. Data analysis was performed using the Bio-Rad CFX Manager Software (version 3.1, Bio-Rad) and changes in the melting temperature (Tm) of the complex in the presence of each compound were monitored. […]"}}}
{"smiles": "CCN(CC)c1ccc(C=O)cc1", "note": "[Compound 10, 4-diethylaminobenzaldehyde]", "values": [{"measurement": "cell survival of HAP1 cells infected with human coronavirus 229E", "setting": "human coronavirus 229E", "result": "increases cell survival"}, {"measurement": "rise in body weight following surgery", "setting": "[1]", "result": "not affected"}, {"measurement": "sensorimotor recovery (forelimb placing, hindlimb placing, body swing tests)", "setting": "[1]; up to Day 21, versus vehicle, p<0.001 two-way repeated-measures ANOVA", "result": "clear and significant augmentation of sensorimotor recovery"}, {"measurement": "relative phosphorylation of FGFR1", "setting": "FGFR1", "result": "augmented the effects of FGF-2"}, {"measurement": "cell survival in the absence of the virus", "setting": "HAP1 cells", "result": "no effect on cell survival"}, {"measurement": "shift of the TSA melting curve / stability of the complex", "setting": "[2]", "result": "increased stability of the complex"}]}
